# Legend:
# [1] = target: Epidermal Growth Factor Receptor (EGFR) (Homo sapiens (Human), UniProt P00533); test: EGFR kinase assay (TR-FRET); format: biochemical; conditions: values given in μM; read-out: EGFR kinase inhibition IC50
# Method in brief: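 EGFR purified from A431 cells was preincubated with compound 15 min at 22° C in pH 7.0 Hepes buffer with MgCl2, MnCl2 and vanadate before reaction with a biotinylated peptide. After EDTA stop, phosphopeptide was detected by TR-FRET (anti-phosphotyrosine Tb-cryptate, streptavidin-XL665) as the 665/620 nm emission ratio.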
# [2] = target: human SOS1 (nucleotide exchange of K-Ras^G12C) (Homo sapiens, UniProt Q07889); test: Biochemical assay 2: K-Ras^G12C activation assay by hSOS1 at high GTP concentration (HTRF); conditions: high GTP; read-out: Assay 2 (KRAS-Activation by SOS high GTP) activity expressed as IC50
# Sequence of Epidermal Growth Factor Receptor (EGFR) (P00533 25-1210): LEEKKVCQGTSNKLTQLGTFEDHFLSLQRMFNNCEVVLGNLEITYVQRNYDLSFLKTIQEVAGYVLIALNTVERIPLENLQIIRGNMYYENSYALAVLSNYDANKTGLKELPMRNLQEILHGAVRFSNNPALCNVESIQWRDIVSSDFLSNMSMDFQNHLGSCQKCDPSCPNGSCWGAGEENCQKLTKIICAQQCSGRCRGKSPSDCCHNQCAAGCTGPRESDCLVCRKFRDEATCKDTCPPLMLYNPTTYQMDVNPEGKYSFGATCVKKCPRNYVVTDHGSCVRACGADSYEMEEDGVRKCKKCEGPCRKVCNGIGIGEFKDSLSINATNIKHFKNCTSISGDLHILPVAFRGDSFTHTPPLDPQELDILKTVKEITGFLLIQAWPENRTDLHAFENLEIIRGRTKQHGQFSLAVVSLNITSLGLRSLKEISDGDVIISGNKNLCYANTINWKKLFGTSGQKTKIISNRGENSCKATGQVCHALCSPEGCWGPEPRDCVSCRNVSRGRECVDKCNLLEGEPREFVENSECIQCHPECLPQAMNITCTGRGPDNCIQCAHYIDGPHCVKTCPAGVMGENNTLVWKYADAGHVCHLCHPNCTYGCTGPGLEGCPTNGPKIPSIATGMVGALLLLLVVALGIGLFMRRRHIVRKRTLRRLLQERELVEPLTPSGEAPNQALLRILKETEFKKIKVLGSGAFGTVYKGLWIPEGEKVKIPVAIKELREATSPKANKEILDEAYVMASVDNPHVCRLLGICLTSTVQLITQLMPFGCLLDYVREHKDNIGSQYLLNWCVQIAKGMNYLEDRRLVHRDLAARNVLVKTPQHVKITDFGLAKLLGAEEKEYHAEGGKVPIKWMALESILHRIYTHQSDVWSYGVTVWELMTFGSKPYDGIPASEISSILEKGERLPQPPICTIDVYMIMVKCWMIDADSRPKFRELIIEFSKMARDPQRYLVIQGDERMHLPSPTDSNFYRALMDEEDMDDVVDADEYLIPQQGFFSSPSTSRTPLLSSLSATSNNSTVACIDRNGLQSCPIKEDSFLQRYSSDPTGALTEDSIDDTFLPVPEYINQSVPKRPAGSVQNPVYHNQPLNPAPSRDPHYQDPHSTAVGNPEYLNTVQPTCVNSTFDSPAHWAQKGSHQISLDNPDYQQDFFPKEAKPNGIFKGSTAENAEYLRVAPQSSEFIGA
SMILES,IC50 [1] [µM],IC50 [2] [nM]
"COc1cc2nc(C)nc(NC(C)c3ccc(-c4cnc5n4CCC5)s3)c2cc1OC (single isomer, unassigned; enantiomer 1) [Example 328, N-{1-[5-(6,7-dihydro-5H-pyrrolo[1,2-a]imidazol-3-yl)thiophen-2-yl]ethyl}-6,7-dimethoxy-2-methylquinazolin-4-amine, Enantiomer 1]",> 20,526
"COc1cc2nc(C)nc(NC(C)c3ccc(-c4cnc5n4CCC5)s3)c2cc1OC (single isomer, unassigned; enantiomer 2) [Example 329, N-{1-[5-(6,7-dihydro-5H-pyrrolo[1,2-a]imidazol-3-yl)thiophen-2-yl]ethyl}-6,7-dimethoxy-2-methylquinazolin-4-amine, Enantiomer 2]",> 20,6470
"COc1cc2nc(C)nc(NC(C)c3ccc(-c4ccc(F)cc4CNC(=O)[C@H]4CCCN4)s3)c2cc1OC (stereo in doubt) [Example 316, N-[2-(5-{1-[(6,7-dimethoxy-2-methylquinazolin-4-yl)amino]ethyl}thiophen-2-yl)-5-fluorobenzyl]-prolinamide]",> 20,284
"COc1cc2nc(C)nc(NC(C)c3cccc4scnc34)c2cc1OC (stereo not drawn) [Example 14, N-[1-(1,3-benzothiazol-4-yl)ethyl]-6,7-dimethoxy-2-methylquinazolin-4-amine]",> 20,608
"COc1cc2nc(C)nc(NC(C)c3cccc4ccsc34)c2cc1OC (stereo not drawn) [Example 15, N-[1-(1-benzothiophen-7-yl)ethyl]-6,7-dimethoxy-2-methylquinazolin-4-amine]",> 20,91.1
"COc1cc2nc(C)nc(NC(C)c3cc(C)cc4[nH]ncc34)c2cc1OC (stereo not drawn) [Example 16, 6,7-dimethoxy-2-methyl-N-[1-(6-methyl-1H-indazol-4-yl)ethyl]quinazolin-4-amine]",> 20,3020
"COc1cc2nc(C)nc(NC(C)c3cccc4c3cnn4C)c2cc1OC (stereo not drawn) [Example 17, 6,7-dimethoxy-2-methyl-N-[1-(1-methyl-1H-indazol-4-yl)ethyl]quinazolin-4-amine]",> 20,297
"COc1cc2nc(C)nc(NC(C)c3c(F)ccc4[nH]ncc34)c2cc1OC (stereo not drawn) [Example 18, N-[1-(5-fluoro-1H-indazol-4-yl)ethyl]-6,7-dimethoxy-2-methylquinazolin-4-amine]",> 20,7680
"COc1cc2nc(C)nc(NC(C)c3ccc4c(c3)OCCO4)c2cc1OC (stereo not drawn) [Example 19, N-[1-(2,3-dihydro-1,4-benzodioxin-6-yl)ethyl]-6,7-dimethoxy-2-methylquinazolin-4-amine]",> 20,6550
"COc1cc2nc(C)nc(NC(C)c3cc4ccccc4o3)c2cc1OC (stereo not drawn) [Example 20, N-[1-(1-benzofuran-2-yl)ethyl]-6,7-dimethoxy-2-methylquinazolin-4-amine]",> 20,8200
"COc1cc2nc(C)nc(NC(C)c3cccc(OC)c3OC)c2cc1OC (stereo not drawn) [Example 21, N-[1-(2,3-dimethoxyphenyl)ethyl]-6,7-dimethoxy-2-methylquinazolin-4-amine]",> 20,3230
"COc1cc2nc(C)nc(N[C@H](C)c3cccc(-c4ccccc4CN)c3)c2cc1OC [Example 258, N-{(1R)-1-[2′-(aminomethyl)biphenyl-3-yl]ethyl}-6,7-dimethoxy-2-methylquinazolin-4-amine]",> 20,190
"COc1cc2nc(C)nc(NC(C)c3csc(-c4ccccc4CN)c3)c2cc1OC (stereo not drawn) [Example 259, N-[1-{5-[2-(aminomethyl)phenyl]thiophen-3-yl}ethyl]-6,7-dimethoxy-2-methylquinazolin-4-amine]",> 20,435
"COc1cc2nc(C)nc(N[C@H](C)c3cccc(CN)c3)c2cc1OC [Example 260, N-{(1R)-1-[3-(aminomethyl)phenyl]ethyl}-6,7-dimethoxy-2-methylquinazolin-4-amine]",> 20,2040
"COc1cc2nc(C)nc(N[C@H](C)c3cccc(-c4cnc5n4CCC5)c3)c2cc1OC [Example 261, N-{(1R)-1-[3-(6,7-dihydro-5H-pyrrolo[1,2-a]imidazol-3-yl)phenyl]ethyl}-6,7-dimethoxy-2-methylquinazolin-4-amine]",> 20,873
"COc1cc2nc(C)nc(NC(C)c3ccc(-c4ccccc4CN(C)C)s3)c2cc1OC (stereo not drawn) [Example 262, N-[1-(5-{2-[(dimethylamino)methyl]phenyl}thiophen-2-yl)ethyl]-6,7-dimethoxy-2-methylquinazolin-4-amine]",> 20,44
"CNCc1ccccc1-c1cc(C(C)Nc2nc(C)nc3cc(OC)c(OC)cc23)cs1 (stereo not drawn) [Example 263, 6,7-dimethoxy-2-methyl-N-[1-(5-{2-[(methylamino)methyl]phenyl}thiophen-3-yl)ethyl]quinazolin-4-amine]",> 20,232

SMILES,IC50 [1] [µM],IC50 [2] [nM]
"COc1cc2nc(C)nc(NC(C)c3cc(Br)cs3)c2cc1OC (stereo not drawn) [Example 264, N-[1-(4-bromothiophen-2-yl)ethyl]-6,7-dimethoxy-2-methylquinazolin-4-amine]",> 20,1670
"COc1cc2nc(C)nc(NC(C)c3ccc(-c4cccc(CN)c4)s3)c2cc1OC (stereo not drawn) [Example 265, N-[1-{5-[3-(aminomethyl)phenyl]thiophen-2-yl}ethyl]-6,7-dimethoxy-2-methylquinazolin-4-amine]",> 20,1470
"COc1cc2nc(C)nc(NC(C)c3ccc(-c4ccc(CN)cc4)s3)c2cc1OC (stereo not drawn) [Example 266, N-[1-{5-[4-(aminomethyl)phenyl]thiophen-2-yl}ethyl]-6,7-dimethoxy-2-methylquinazolin-4-amine]",> 20,1700
"COc1cc2nc(C)nc(NC(C)c3cc(-c4ccn(CCN5CCCC5)n4)cs3)c2cc1OC (stereo not drawn) [Example 267, 6,7-dimethoxy-2-methyl-N-[1-(4-{1-[2-(pyrrolidin-1-yl)ethyl]-1H-pyrazol-3-yl}thiophen-2-yl)ethyl]quinazolin-4-amine]",> 20,1520
"CNCc1ccccc1-c1cccc([C@@H](C)Nc2nc(C)nc3cc(OC)c(OC)cc23)c1 [Example 268, 6,7-dimethoxy-2-methyl-N-[(1R)-1-{2′-[(methylamino)methyl]biphenyl-3-yl}ethyl]quinazolin-4-amine]",> 20,151
"COc1cc2nc(C)nc(NC(C)c3cc(-c4ccc(F)cc4CN)cs3)c2cc1OC (stereo not drawn) [Example 269, N-[1-{4-[2-(aminomethyl)-4-fluorophenyl]thiophen-2-yl}ethyl]-6,7-dimethoxy-2-methylquinazolin-4-amine]",> 20,115
"COc1cc2nc(C)nc(NC(C)c3cc(-c4ccccc4CN)cs3)c2cc1OC (stereo not drawn) [Example 270, N-[1-{4-[2-(aminomethyl)phenyl]thiophen-2-yl}ethyl]-6,7-dimethoxy-2-methylquinazolin-4-amine]",> 20,82.2
"COc1cc2nc(C)nc(NC(C)c3cc(-c4cnc5n4CCC5)cs3)c2cc1OC (stereo not drawn) [Example 272, N-{1-[4-(6,7-dihydro-5H-pyrrolo[1,2-a]imidazol-3-yl)thiophen-2-yl]ethyl}-6,7-dimethoxy-2-methylquinazolin-4-amine]",> 20,1500
"COc1cc2nc(C)nc(NC(C)c3cc(-c4ccn(CCO)n4)cs3)c2cc1OC (stereo not drawn) [Example 273, 2-[3-(5-{1-[(6,7-dimethoxy-2-methylquinazolin-4-yl)amino]ethyl}thiophen-3-yl)-1H-pyrazol-1-yl]ethanol]",> 20,2360
"COc1cc2nc(C)nc(N[C@H](C)c3cccc(-c4ccc(F)cc4CN)c3)c2cc1OC [Example 274, N-{(1R)-1-[2′-(aminomethyl)-4′-fluorobiphenyl-3-yl]ethyl}-6,7-dimethoxy-2-methylquinazolin-4-amine]",> 20,141
"COc1cc2nc(C)nc(NC(C)c3ccc(-c4ccc(CN)o4)s3)c2cc1OC (stereo not drawn) [Example 275, N-[1-{5-[5-(aminomethyl)furan-2-yl]thiophen-2-yl}ethyl]-6,7-dimethoxy-2-methylquinazolin-4-amine]",> 20,2970
"COc1cc2nc(C)nc(NC(C)c3ccc(-c4ccc(CN)s4)s3)c2cc1OC (stereo not drawn) [Example 276, N-{1-[5′-(aminomethyl)-2,2′-bithiophen-5-yl]ethyl}-6,7-dimethoxy-2-methylquinazolin-4-amine]",> 20,1660
"COc1cc2nc(C)nc(NC(C)c3ccc(-c4ccccc4CNCC(=O)c4c[nH]c5ccccc45)s3)c2cc1OC (stereo not drawn) [Example 277, 2-{[2-(5-{1-[(6,7-dimethoxy-2-methylquinazolin-4-yl)amino]ethyl}thiophen-2-yl)benzyl]amino}-1-(1H-indol-3-yl)ethanone]",> 20,237
"COc1cc2nc(C)nc(NC(C)c3ccc(-c4cccc5sc(C(N)=O)c(N)c45)s3)c2cc1OC (stereo not drawn) [Example 278, 3-amino-4-(5-{1-[(6,7-dimethoxy-2-methylquinazolin-4-yl)amino]ethyl}thiophen-2-yl)-1-benzothiophene-2-carboxamide]",> 20,3710
"COC(=O)CNCc1ccccc1-c1ccc(C(C)Nc2nc(C)nc3cc(OC)c(OC)cc23)s1 (stereo not drawn) [Example 281, methyl N-[2-(5-{1-[(6,7-dimethoxy-2-methylquinazolin-4-yl)amino]ethyl}thiophen-2-yl)benzyl]glycinate]",> 20,447
"COc1cc2nc(C)nc(NC(C)c3ccc(-c4ccccc4CNCC(=O)N4CCOCC4)s3)c2cc1OC (stereo not drawn) [Example 285, 2-{[2-(5-{1-[(6,7-dimethoxy-2-methylquinazolin-4-yl)amino]ethyl}thiophen-2-yl)benzyl]amino}-1-(morpholin-4-yl)ethanone]",> 20,158

# Source: patent US20240083857A1, “2-Methyl-Quinazolines” (Bayer Pharma Aktiengesellschaft, priority 2017, published 2024)
